For data set [1], the target named is T1, oestrone sulphatase (Rattus norvegicus, UniProt P15589).
T1 construct: samples of liver tissue were obtained; from tissue; host or cells: rat liver
T1 sequence (P15589 20-577): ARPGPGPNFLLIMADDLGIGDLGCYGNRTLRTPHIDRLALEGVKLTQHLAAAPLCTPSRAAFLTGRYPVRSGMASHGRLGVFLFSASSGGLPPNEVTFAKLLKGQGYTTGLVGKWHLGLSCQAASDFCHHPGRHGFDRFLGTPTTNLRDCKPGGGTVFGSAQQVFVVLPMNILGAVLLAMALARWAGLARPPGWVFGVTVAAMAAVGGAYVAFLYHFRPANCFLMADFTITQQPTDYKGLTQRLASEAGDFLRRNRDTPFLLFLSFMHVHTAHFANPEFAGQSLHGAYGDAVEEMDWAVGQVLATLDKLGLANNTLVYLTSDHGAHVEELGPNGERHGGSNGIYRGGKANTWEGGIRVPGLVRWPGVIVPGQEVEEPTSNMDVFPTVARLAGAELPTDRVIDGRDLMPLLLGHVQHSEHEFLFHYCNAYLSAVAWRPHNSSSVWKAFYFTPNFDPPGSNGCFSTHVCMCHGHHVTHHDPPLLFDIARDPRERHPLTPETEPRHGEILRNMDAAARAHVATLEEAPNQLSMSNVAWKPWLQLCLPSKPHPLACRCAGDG
The experiment in a line: Inhibition of oestrone sulphatase activity in vivo in rat liver (NOMATE). Particulars: 0.1 mg/Kg/day for five days orally; rat liver tissue; compared with untreated controls. How it is done: (§1) Using 17-deoxy oestrone-3-O-sulphamate (NOMATE, FIG. 5 Formula IV where X=—OSO2NH2, Y=—CH2— and R1 and R2=H, and FIG. 13) as a representative example, the ability of this compound to inhibit oestrone sulphatase activity in vivo was examined in rats. The oestrogenicity of this compound was examined in ovariectomised rats. In this model compounds which are oestrogenic stimulate uterine growth.
NOMATE (0.1 mg/Kg/day for five days) was administered orally to rats with another group of animals receiving vehicle only (propylene glycol). At the end of the study samples of liver tissue were obtained and oestrone sulphatase activity assayed using ^3H oestrone sulphate as the substrate as previously described.

Data set [2] has as its target T2, oestrone sulphatase (Homo sapiens, UniProt P08842).
T2 sequence (P08842 22-583): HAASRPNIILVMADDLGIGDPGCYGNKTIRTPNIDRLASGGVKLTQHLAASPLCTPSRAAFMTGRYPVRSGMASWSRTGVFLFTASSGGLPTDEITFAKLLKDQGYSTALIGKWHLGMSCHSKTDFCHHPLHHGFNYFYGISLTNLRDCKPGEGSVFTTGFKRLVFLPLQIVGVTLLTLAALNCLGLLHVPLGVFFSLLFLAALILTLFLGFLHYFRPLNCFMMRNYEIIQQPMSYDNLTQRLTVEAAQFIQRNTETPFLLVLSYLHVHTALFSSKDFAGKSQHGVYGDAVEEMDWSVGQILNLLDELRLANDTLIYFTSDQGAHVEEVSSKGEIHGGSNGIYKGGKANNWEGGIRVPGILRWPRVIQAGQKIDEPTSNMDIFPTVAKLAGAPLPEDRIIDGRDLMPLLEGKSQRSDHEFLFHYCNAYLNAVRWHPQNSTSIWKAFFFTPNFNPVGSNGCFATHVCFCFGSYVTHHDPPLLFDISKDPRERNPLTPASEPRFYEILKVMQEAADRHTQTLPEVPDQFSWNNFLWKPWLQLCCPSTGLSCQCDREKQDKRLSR

For data set [3], the system named is uterine growth. The experiment in a line: In vivo oestrogenicity: uterine weight in ovariectomised rats (NOMATE). Also noted: species or system rat. Particulars: 0.1 mg/Kg/day for five days orally. How it is done:
as §1
NOMATE (0.1 mg/Kg/day for five days) was administered orally to rats with another group of animals receiving vehicle only (propylene glycol). At the end of the study uteri were obtained and weighed with the results being expressed as uterine weight/whole body weight×100.

The structures appear in SMILES notation. Like-named read-outs stand apart in the source and are kept apart here.

Regarding `C[C@@]12CCC[C@H]1[C@@H]1CCc3cc(OS(N)(=O)=O)ccc3[C@H]1CC2` [NOMATE, 17-deoxy oestrone-3-O-sulphamate], the “inhibition of oestrone sulphatase activity in vivo” value in data set [1] was 98%. Besides, the “% Inhibition (Mean) Placental Microsomes” value was 97.2% in data set [2] (concentration tested 0.1 mM (so in the source)), 99.5% in data set [2] (concentration tested 1 mM (so in the source)), 99.5% in data set [2] (concentration tested 10 mM (so in the source)) and 99.7% in data set [2] (concentration tested 25 mM (so in the source)). The “effect on uterine growth (oestrogenicity, in words)” value in data set [3] is recorded as “no significant effect on uterine growth”.

Values taken from patent US7098199B2 (Sterix Limited, priority 1991, dated 2006).
